How the values were obtained:
human GLP-1R [1] = target: human GLP-1R (Homo sapiens, UniProt P43220, G168S); assay: CHO GLP-1R Clone H6 cAMP HTRF agonist assay (Assay 1, high receptor density); format: cell-based; conditions: for EC50: geometric mean; for Emax: CHO GLP-1R clone H6, arithmetic mean, relative to saturating GLP-1 (1 μM), read-out: Assay 1 Emax (%)
Summary of the method: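 From replicate determinations, mean EC50 (geometric) and mean Emax (arithmetic) were derived and expressed to two significant figures.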

human GLP-1R [2] = target: human GLP-1R (Homo sapiens, UniProt P43220, L260F); assay: CHO GLP-1R Clone C6 cAMP HTRF agonist assay (Assay 2, low receptor density); format: cell-based; conditions: for EC50: geometric mean; for Emax: CHO GLP-1R clone C6, relative to saturating GLP-1 (1 μM)
human GLP-1R (Homo sapiens, UniProt P43220, L260F), sequence (P43220 24-463 L260F): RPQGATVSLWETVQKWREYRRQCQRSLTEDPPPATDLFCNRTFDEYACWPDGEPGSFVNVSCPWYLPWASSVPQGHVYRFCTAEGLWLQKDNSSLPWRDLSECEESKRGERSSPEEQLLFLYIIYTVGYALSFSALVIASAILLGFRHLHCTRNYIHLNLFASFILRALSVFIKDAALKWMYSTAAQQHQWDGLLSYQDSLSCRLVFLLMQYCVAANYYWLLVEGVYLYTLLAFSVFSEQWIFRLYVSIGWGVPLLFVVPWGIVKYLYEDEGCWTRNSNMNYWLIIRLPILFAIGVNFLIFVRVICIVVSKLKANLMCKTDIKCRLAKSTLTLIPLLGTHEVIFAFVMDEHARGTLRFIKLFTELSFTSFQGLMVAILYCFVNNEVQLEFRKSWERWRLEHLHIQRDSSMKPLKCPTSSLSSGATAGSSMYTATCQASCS
Source text: In Table 5 and Table 6, assay data are presented to two (2) significant figures as the geometric mean (EC50s) and arithmetic mean (Emax) based on the number of replicates listed (Number). A blank cell means there was no data for that Example or the Emax was not calculated.

human GLP-1R (Homo sapiens, UniProt P43220, G168S), sequence (P43220 24-463 G168S): as the sequence (P43220 24-463 L260F) above, with G145S, F237L counted along it

EC50 (human GLP-1R [1]; CHO GLP-1R clone H6, cAMP HTRF) [nM] | Emax (human GLP-1R [1]) [%] | EC50 (human GLP-1R [2]; CHO GLP-1R clone C6, cAMP HTRF) [nM] | Emax (human GLP-1R [2]; arithmetic mean) [%] | EC50 (human GLP-1R [1]; CHO GLP-1R clone, cAMP HTRF) [nM] | EC50 (human GLP-1R [2]; CHO GLP-1R clone, low receptor density, cAMP HTRF) [nM] | Assay 2 Emax (human GLP-1R [2]; relative to saturating full agonist GLP-1 (1 μM), arithmetic mean) [%] | Structure (SMILES)
5 | 82 | 41 | 77 | – | – | – | CC(c1cnn(C)n1)n1c(CN2CCC(c3cccc(OCc4ccc(Cl)cc4F)n3)CC2)nc2ccc(C(=O)O)cc21 (stereo not drawn) [Compound 335B, 2-[(4-{6-[(4-chloro-2-fluorobenzyl)oxy]pyridin-2-yl}piperidin-1-yl)methyl]-1-[1-(2-methyl-2H-1,2,3-triazol-4-yl)ethyl]-1H-benzimidazole-6-carboxylic acid]
55 | 71 | 1700 | 99 | – | – | – | O=C(O)c1ccc2nc(CN3CCC(c4cccc(OCc5ccc(Cl)cc5F)n4)CC3)n(CCn3cncn3)c2c1 [Compound 292B, 2-[(4-{6-[(4-chloro-2-fluorobenzyl)oxy]pyridin-2-yl}piperidin-1-yl)methyl]-1-[2-(1H-1,2,4-triazol-1-yl)ethyl]-1H-benzimidazole-6-carboxylic acid]
54 | 77 | 1200 | 82 | – | – | – | O=C(O)c1ccc2nc(CN3CCC(c4cccc(OCc5ccc(Cl)cc5F)n4)CC3)n(CC3CCC3)c2c1 [Compound 291B, 2-[(4-{6-[(4-chloro-2-fluorobenzyl)oxy]pyridin-2-yl}piperidin-1-yl)methyl]-1-(cyclobutylmethyl)-1H-benzimidazole-6-carboxylic acid]
110 | 74 | 2700 | – | – | – | – | O=C(O)c1ccc2nc(CN3CCC(c4cccc(OCc5ccc(Cl)cc5F)n4)CC3)n(Cc3c[nH]nn3)c2c1 [Compound 298B, 2-[(4-{6-[(4-chloro-2-fluorobenzyl)oxy]pyridin-2-yl}piperidin-1-yl)methyl]-1-(1H-1,2,3-triazol-4-ylmethyl)-1H-benzimidazole-6-carboxylic acid]
30 | 77 | 360 | 89 | – | – | – | COCCN1CCCC(Cn2c(CN3CCC(c4cccc(OCc5ccc(Cl)cc5F)n4)CC3)nc3ccc(C(=O)O)cc32)C1 (stereo not drawn) [Compound 288B, 2-[(4-{6-[(4-chloro-2-fluorobenzyl)oxy]pyridin-2-yl}piperidin-1-yl)methyl]-1-{[1-(2-methoxyethyl)piperidin-3-yl]methyl}-1H-benzimidazole-6-carboxylic acid]
– | 72 | – | 84 | – | – | – | N#Cc1ccc(COc2nc(C3CCN(Cc4nc5ccc(C(=O)O)cc5n4CC4CCCO4)CC3)ccc2F)cc1 (stereo not drawn) [Compound 360B, 2-[(4-{6-[(4-cyanobenzyl)oxy]-5-fluoropyridin-2-yl}piperidin-1-yl)methyl]-1-(tetrahydrofuran-2-ylmethyl)-1H-benzimidazole-6-carboxylic acid]
150 | 68 | 5300 | 80 | – | – | – | Cc1ccc(Cn2c(CN3CCC(c4cccc(OCc5ccc(Cl)cc5F)n4)CC3)nc3ccc(C(=O)O)cc32)cn1 [Compound 336B, 2-[(4-{6-[(4-chloro-2-fluorobenzyl)oxy]pyridin-2-l}piperidin-1-yl)methyl]-1-[(6-methylpyridin-3-yl)methyl]-1H-benzimidazole-6-carboxylic acid]
15 | 83 | 230 | 110 | – | – | – | CN1CCC(CCn2c(CN3CCC(c4cccc(OCc5ccc(Cl)cc5F)n4)CC3)nc3ccc(C(=O)O)cc32)CC1 [Compound 282B, 2-[(4-{6-[(4-chloro-2-fluorobenzyl)oxy]pyridin-2-yl}piperidin-1-yl)methyl]-1-[2-(1-methylpiperidin-4-yl)ethyl]-1H-benzimidazole-6-carboxylic acid]
96 | 86 | 1400 | 94 | – | – | – | Cn1nccc1Cn1c(CN2CCC(c3cccc(OCc4ccc(Cl)cc4F)n3)CC2)nc2ccc(C(=O)O)cc21 [Compound 296B, 2-[(4-{6-[(4-chloro-2-fluorobenzyl)oxy]pyridin-2-yl}piperidin-1-yl)methyl]-1-[(1-methyl-1H-pyrazol-5-yl)methyl]-1H-benzimidazole-6-carboxylic acid]
120 | 80 | 1500 | 92 | – | – | – | O=C(O)c1ccc2nc(CN3CCC(c4cccc(OCc5ccc(Cl)cc5F)n4)CC3)n(C3CCOC3)c2c1 (stereo not drawn) [Compound 301B, 2-[(4-{6-[(4-chloro-2-fluorobenzyl)oxy]pyridin-2-yl}piperidin-1-yl)methyl]-1-(tetrahydrofuran-3-yl)-1H-benzimidazole-6-carboxylic acid]
– | 73 | – | 81 | – | – | – | N#Cc1ccc(COc2nc(C3CCN(Cc4nc5ccc(C(=O)O)cc5n4CC4CCOC4)CC3)ccc2F)cc1 (stereo not drawn) [Compound 361B, 2-[(4-{6-[(4-cyanobenzyl)oxy]-5-fluoropyridin-2-yl}piperidin-1-yl)methyl]-1-(tetrahydrofuran-3-ylmethyl)-1H-benzimidazole-6-carboxylic acid]

Second part, the compound before the results:

Structure (SMILES) | EC50 (human GLP-1R [1]; CHO GLP-1R clone H6, cAMP HTRF) [nM] | Emax (human GLP-1R [1]) [%] | EC50 (human GLP-1R [2]; CHO GLP-1R clone C6, cAMP HTRF) [nM] | Emax (human GLP-1R [2]; arithmetic mean) [%] | EC50 (human GLP-1R [1]; CHO GLP-1R clone, cAMP HTRF) [nM] | EC50 (human GLP-1R [2]; CHO GLP-1R clone, low receptor density, cAMP HTRF) [nM] | Assay 2 Emax (human GLP-1R [2]; relative to saturating full agonist GLP-1 (1 μM), arithmetic mean) [%]
O=C(O)c1ccc2nc(CN3CCN(c4cccc(OCc5ccc(Cl)cc5F)n4)CC3)n(C[C@@H]3CCO3)c2n1 [Compound 120B, 2-[(4-{6-[(4-chloro-2-fluorobenzyl)oxy]pyridin-2-yl}piperazin-1-yl)methyl]-3-[(2S)-oxetan-2-ylmethyl]-3H-imidazo[4,5-b]pyridine-5-carboxylic acid] | 47 | 71 | 1600 | 81 | – | – | –
N#Cc1ccc(COc2nc(C3CCN(Cc4nc5ccc(C(=O)O)cc5n4C[C@@H]4CCO4)CC3)ccc2F)c(F)c1 [Compound 113B, 2-[(4-{6-[(4-cyano-2-fluorobenzyl)oxy]-5-fluoropyridin-2-yl}piperidin-1-yl)methyl]-1-[(2S)-oxetan-2-ylmethyl]-1H-benzimidazole-6-carboxylic acid] | 3.9 | 82 | 45 | 82 | – | – | –
O=C(O)c1ccc2nc(CN3CCC(c4cccc(OCc5ccc(Cl)cc5F)n4)CC3)n(Cc3cnco3)c2c1 [Compound 145B, 2-[(4-{6-[(4-chloro-2-fluorobenzyl)oxy]pyridin-2-yl}piperidin-1-yl)methyl]-1-(1,3-oxazol-5-ylmethyl)-1H-benzimidazole-6-carboxylic acid] | 120 | 76 | 2200 | 83 | – | – | –
COCCn1c(CN2CCC(c3cccc(OCc4ccc(Cl)cc4F)n3)CC2)nc2ccc(C(=O)O)c(F)c21 [Compound 170B, 2-[(4-{6-[(4-chloro-2-fluorobenzyl)oxy]pyridin-2-yl}piperidin-1-yl)methyl]-7-fluoro-1-(2-methoxyethyl)-1H-benzimidazole-6-carboxylic acid] | 79 | 81 | 4000 | 75 | – | – | –
CC(C)(C)n1cnnc1Cn1c(CN2CCC(c3cccc(OCc4ccc(Cl)cc4F)n3)CC2)nc2ccc(C(=O)O)cc21 [Compound 259B, 1-[(4-tert-butyl-4H-1,2,4-triazol-3-yl)methyl]-2-[(4-{6-[(4-chloro-2-fluorobenzyl)oxy]pyridin-2-yl}piperidin-1-yl)methyl]-1H-benzimidazole-6-carboxylic acid] | 0.95 | 95 | 13 | 91 | – | – | –
Cn1cncc1Cn1c(CN2CCC(c3cccc(OCc4ccc(Cl)cc4F)n3)CC2)nc2ccc(C(=O)O)cc21 [Compound 143B, 2-[(4-{6-[(4-chloro-2-fluorobenzyl)oxy]pyridin-2-yl}piperidin-1-yl)methyl]-1-[(1-methyl-1H-imidazol-5-yl)methyl]-1H-benzimidazole-6-carboxylic acid] | 140 | 72 | 1600 | 46 | – | – | –
N#Cc1ccc(COc2cccc(N3CCN(Cc4nc5ccc(C(=O)O)cc5n4Cc4cnco4)CC3)n2)c(F)c1 [Compound 142B, 2-[(4-{6-[(4-cyano-2-fluorobenzyl)oxy]pyridin-2-yl}piperazin-1-yl)methyl]-1-(1,3-oxazol-5-ylmethyl)-1H-benzimidazole-6-carboxylic acid] | 9 | 82 | 170 | 85 | – | – | –
Cn1c(CN2CCC(c3cccc(OCc4ccccc4OC(F)(F)F)n3)CC2)nc2ccc(C(=O)O)cc21 [Compound 229B, 1-methyl-2-{[4-(6-{[2-(trifluoromethoxy)benzyl]oxy}pyridin-2-yl)piperidin-1-yl]methyl}-1H-benzimidazole-6-carboxylic acid] | 1 | 76 | 19 | 75 | – | – | –
CCn1cncc1Cn1c(CN2CCC(c3cccc4c3OC(C)(c3ccc(Cl)cc3F)O4)CC2)nc2ccc(C(=O)O)cc21.N (single isomer, unassigned; ent-2) [Compound 22B, Ammonium 2-({4-[2-(4-chloro-2-fluorophenyl)-2-methyl-1,3-benzodioxol-4-yl]piperidin-1-yl}methyl)-1-[(1-ethyl-1H-imidazol-5-yl)methyl]-1H-benzimidazole-6-carboxylate, ENT-2] | – | – | – | – | 210 | 1000 | 87
CC(C)n1c(CN2CCC(c3cccc(OCc4ccc(Cl)cc4F)n3)CC2)nc2ccc(C(=O)O)cc21 [Compound 258B, 2-[(4-{6-[(4-chloro-2-fluorobenzyl)oxy]pyridin-2-yl}piperidin-1-yl)methyl]-1-(propan-2-yl)-1H-benzimidazole-6-carboxylic acid] | 0.9 | 94 | 9.7 | 100 | – | – | –

Reference: patent publication US20250235460A1, “COMBINATION THERAPY USING GLUCOSE-DEPENDENT INSULINOTROPIC POLYPEPTIDE RECEPTOR ANTAGONIST COMPOUNDS AND GLP-1 RECEPTOR AGONIST COMPOUNDS” (Pfizer Inc., priority 2024, published 2025)
